Assay results taken from PubChem BioAssay AID2060622 (Molecular Pharmacology Branch, DTP, NCI, 2025).

Test system: 242566-281-R-J2-PDC complex spheroid viability
Experiment: Anticancer human tumor 242566-281-R-J2-PDC patient-derived pancreatic carcinoma cell line growth inhibition [CLK]
Settings: for IC50: curve of first compound; for viability, T/C: stronger effect = lower value
How it was run: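 Patient-derived tumor cells grown as complex spheroids with HUVEC endothelial cells and mesenchymal stem cells, treated with drug combinations. Concentrations descend in half-log steps from near clinical Cmax, or from 10 microM if Cmax unknown.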

[1] = second compound 0.0316 µM, first compound 0.0316 µM
[2] = second compound 0.0316 µM, first compound 0.1 µM
[3] = second compound 0.1 µM, first compound 0.0316 µM
[4] = second compound 0.1 µM, first compound 0.1 µM
[5] = second compound 0.316 µM, first compound 0.0316 µM
[6] = second compound 0.316 µM, first compound 0.1 µM
[7] = second compound 1 µM, first compound 0.0316 µM
[8] = second compound 1 µM, first compound 0.1 µM
[9] = second compound 3.16 µM, first compound 0.0316 µM
[10] = second compound 3.16 µM, first compound 0.1 µM
[11] = second compound 10 µM, first compound 0.0316 µM
[12] = second compound 10 µM, first compound 0.1 µM
[13] = second compound 0.0316 µM, first compound 0.316 µM
[14] = second compound 0.0316 µM, first compound 1 µM
[15] = second compound 0.0316 µM, first compound 3.16 µM
[16] = second compound 0.0316 µM, first compound 10 µM
[17] = second compound 0.1 µM, first compound 0.316 µM
[18] = second compound 0.1 µM, first compound 1 µM
[19] = second compound 0.1 µM, first compound 3.16 µM
[20] = second compound 0.1 µM, first compound 10 µM
[21] = second compound 0.316 µM, first compound 0.316 µM
[22] = second compound 0.316 µM, first compound 1 µM
[23] = second compound 0.316 µM, first compound 3.16 µM
[24] = second compound 0.316 µM, first compound 10 µM
[25] = second compound 1 µM, first compound 0.316 µM
[26] = second compound 1 µM, first compound 1 µM
[27] = second compound 1 µM, first compound 3.16 µM
[28] = second compound 1 µM, first compound 10 µM
[29] = second compound 3.16 µM, first compound 0.316 µM
[30] = second compound 3.16 µM, first compound 1 µM
[31] = second compound 3.16 µM, first compound 3.16 µM
[32] = second compound 3.16 µM, first compound 10 µM
[33] = second compound 10 µM, first compound 0.316 µM
[34] = second compound 10 µM, first compound 1 µM
[35] = second compound 10 µM, first compound 3.16 µM
[36] = second compound 10 µM, first compound 10 µM
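Note: spheroids exposed to compounds for 7 days before readout.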
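Throughout, for viability, T/C: 100% = DMSO vehicle control wells.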

`Cn1ncnc1[C@H]1c2n[nH]c(=O)c3cc(F)cc(c23)N[C@@H]1c1ccc(F)cc1` + CN1CCN(c2cc(C(=O)Nc3cc4cc(-c5cnn(C)c5)ccc4cn3)ccn2)CC1 gave an IC50 (second compound 0.0316 µM) greater than 100 nM, an IC50 (second compound 0.1 µM) greater than 100 nM and an IC50 (second compound 0.316 µM) of less than 0.316 nM. The IC50 (second compound 1 µM) was less than 0.316 nM, the IC50 (second compound 3.16 µM) was less than 0.316 nM and the IC50 (second compound 10 µM) was less than 0.316 nM. It also gave a viability, T/C (second compound 0.0316 µM, first compound 0.000316 µM) of 106%, a viability, T/C (second compound 0.0316 µM, first compound 0.001 µM) of 96.4% and a viability, T/C (second compound 0.0316 µM, first compound 0.00316 µM) of 99.5%. For the same molecule, the viability, T/C (second compound 0.0316 µM, first compound 0.01 µM) was 107%, the viability, T/C [1] was 97.9% and the viability, T/C [2] was 88%. The viability, T/C (second compound 0.1 µM, first compound 0.000316 µM) was 87.7%, the viability, T/C (second compound 0.1 µM, first compound 0.001 µM) was 87.9% and the viability, T/C (second compound 0.1 µM, first compound 0.00316 µM) was 89.1%. The viability, T/C (second compound 0.1 µM, first compound 0.01 µM) was 86.6%, the viability, T/C [3] was 84.8% and the viability, T/C [4] was 62.9%. For the same molecule, the viability, T/C (second compound 0.316 µM, first compound 0.000316 µM) was 34%, the viability, T/C (second compound 0.316 µM, first compound 0.001 µM) was 35% and the viability, T/C (second compound 0.316 µM, first compound 0.00316 µM) was 32.3%. For the same molecule, the viability, T/C (second compound 0.316 µM, first compound 0.01 µM) was 30.9%, the viability, T/C [5] was 31.3% and the viability, T/C [6] was 26.8%. For the same molecule, the viability, T/C (second compound 1 µM, first compound 0.000316 µM) was 4.47%, the viability, T/C (second compound 1 µM, first compound 0.001 µM) was 4.64% and the viability, T/C (second compound 1 µM, first compound 0.00316 µM) was 4.59%. It also gave a viability, T/C (second compound 1 µM, first compound 0.01 µM) of 4.07%, a viability, T/C [7] of 3.7% and a viability, T/C [8] of 3.76%. For the same molecule, the viability, T/C (second compound 3.16 µM, first compound 0.000316 µM) was 6.68%, the viability, T/C (second compound 3.16 µM, first compound 0.001 µM) was 7.67% and the viability, T/C (second compound 3.16 µM, first compound 0.00316 µM) was 6.68%. For the same molecule, the viability, T/C (second compound 3.16 µM, first compound 0.01 µM) was 5.7%, the viability, T/C [9] was 5.67% and the viability, T/C [10] was 5.8%. For the same molecule, the viability, T/C (second compound 10 µM, first compound 0.000316 µM) was 0.94%, the viability, T/C (second compound 10 µM, first compound 0.001 µM) was 1.5% and the viability, T/C (second compound 10 µM, first compound 0.00316 µM) was 1.24%. The viability, T/C (second compound 10 µM, first compound 0.01 µM) was 1.06%, the viability, T/C [11] was 2.08% and the viability, T/C [12] was 1.4%.
Work on `Nc1ccn(C2OC(CO)C(O)C2(F)F)c(=O)n1` (stereo unspecified) + CN1CCN(c2cc(C(=O)Nc3cc4cc(-c5cnn(C)c5)ccc4cn3)ccn2)CC1 yielded an IC50 (second compound 0.0316 µM) of less than 31.6 nM, an IC50 (second compound 0.1 µM) of less than 31.6 nM and an IC50 (second compound 0.316 µM) of less than 31.6 nM. The IC50 (second compound 1 µM) was less than 31.6 nM, the IC50 (second compound 3.16 µM) was less than 31.6 nM and the IC50 (second compound 10 µM) was less than 31.6 nM. The viability, T/C [1] was 46.6%, the viability, T/C [2] was 20.6% and the viability, T/C [13] was 10.6%. It also gave a viability, T/C [14] of 13.3%, a viability, T/C [15] of 8.86% and a viability, T/C [16] of 6.79%. The viability, T/C [3] was 48.6%, the viability, T/C [4] was 15.4% and the viability, T/C [17] was 10.2%. For the same molecule, the viability, T/C [18] was 6.87%, the viability, T/C [19] was 6.64% and the viability, T/C [20] was 5.01%. It also gave a viability, T/C [5] of 23.9%, a viability, T/C [6] of 15.3% and a viability, T/C [21] of 10.9%. The viability, T/C [22] was 4.57%, the viability, T/C [23] was 4.57% and the viability, T/C [24] was 3.01%. For the same molecule, the viability, T/C [7] was 4.38%, the viability, T/C [8] was 4.08% and the viability, T/C [25] was 3.98%. The viability, T/C [26] was 4.09%, the viability, T/C [27] was 4.15% and the viability, T/C [28] was 3.45%. The viability, T/C [9] was 7.21%, the viability, T/C [10] was 6.5% and the viability, T/C [29] was 5.9%. It also gave a viability, T/C [30] of 5.48%, a viability, T/C [31] of 5.49% and a viability, T/C [32] of 5.8%. The viability, T/C [11] was 1.62%, the viability, T/C [12] was 1.77% and the viability, T/C [33] was 1.12%. It also gave a viability, T/C [34] of 1.8%, a viability, T/C [35] of 1.55% and a viability, T/C [36] of 1.05%.
With `O=c1[nH]cc(F)c(=O)[nH]1` + CN1CCN(c2cc(C(=O)Nc3cc4cc(-c5cnn(C)c5)ccc4cn3)ccn2)CC1 the IC50 (second compound 0.0316 µM) was greater than 10000 nM, the IC50 (second compound 0.1 µM) was 5960 nM and the IC50 (second compound 0.316 µM) was less than 31.6 nM. The IC50 (second compound 1 µM) was less than 31.6 nM, the IC50 (second compound 3.16 µM) was less than 31.6 nM and the IC50 (second compound 10 µM) was less than 31.6 nM. For the same molecule, the viability, T/C [1] was 109%, the viability, T/C [2] was 101% and the viability, T/C [13] was 103%. It also gave a viability, T/C [14] of 77%, a viability, T/C [15] of 61.4% and a viability, T/C [16] of 56.1%. It also gave a viability, T/C [3] of 97.8%, a viability, T/C [4] of 81.2% and a viability, T/C [17] of 81.7%. It also gave a viability, T/C [18] of 69.8%, a viability, T/C [19] of 54.8% and a viability, T/C [20] of 44.9%. The viability, T/C [5] was 38.5%, the viability, T/C [6] was 35.3% and the viability, T/C [21] was 30.8%. It also gave a viability, T/C [22] of 25.4%, a viability, T/C [23] of 24.9% and a viability, T/C [24] of 18.9%. For the same molecule, the viability, T/C [7] was 4.56%, the viability, T/C [8] was 4.75% and the viability, T/C [25] was 3.93%. It also gave a viability, T/C [26] of 4.22%, a viability, T/C [27] of 3.79% and a viability, T/C [28] of 3.85%. It also gave a viability, T/C [9] of 7.11%, a viability, T/C [10] of 6.79% and a viability, T/C [29] of 6.18%. The viability, T/C [30] was 6.26%, the viability, T/C [31] was 5.72% and the viability, T/C [32] was 5.29%. The viability, T/C [11] was 1.55%, the viability, T/C [12] was 1.68% and the viability, T/C [33] was 1.19%. For the same molecule, the viability, T/C [34] was 1.49%, the viability, T/C [35] was 1.43% and the viability, T/C [36] was 1.2%.
